pIC50: −log10 of the molar value.
Columns and labels:
[1] = Growth inhibition of human U87MG cells; format: functional, U-87MG ATCC; conditions: U-87 MG
[2] = biological target: Phosphatidylinositol 4,5-bisphosphate 3-kinase catalytic subunit alpha isoform (Homo sapiens, UniProt P42336); test: Inhibition of PI3Kalpha kinase
[3] = biological target: T1, Serine/threonine-protein kinase mTOR (Homo sapiens, UniProt P42345); test: Inhibition of mTOR kinase in human HeLa cells by ELISA; format: cell-based
MDR1 (human) = test: Apparent permeability from apical to basolateral side in MDCK2 cells expressing human MDR1 at 10 uM; format: ADME, cell-based, Canis lupus familiaris, MDCK-II; conditions: dog, MDCK-MDR1
[4] = biological target: Serine-protein kinase ATM (Homo sapiens, UniProt Q13315); test: Inhibition of ATM
Sequence of Serine-protein kinase ATM (Q13315 whole entry): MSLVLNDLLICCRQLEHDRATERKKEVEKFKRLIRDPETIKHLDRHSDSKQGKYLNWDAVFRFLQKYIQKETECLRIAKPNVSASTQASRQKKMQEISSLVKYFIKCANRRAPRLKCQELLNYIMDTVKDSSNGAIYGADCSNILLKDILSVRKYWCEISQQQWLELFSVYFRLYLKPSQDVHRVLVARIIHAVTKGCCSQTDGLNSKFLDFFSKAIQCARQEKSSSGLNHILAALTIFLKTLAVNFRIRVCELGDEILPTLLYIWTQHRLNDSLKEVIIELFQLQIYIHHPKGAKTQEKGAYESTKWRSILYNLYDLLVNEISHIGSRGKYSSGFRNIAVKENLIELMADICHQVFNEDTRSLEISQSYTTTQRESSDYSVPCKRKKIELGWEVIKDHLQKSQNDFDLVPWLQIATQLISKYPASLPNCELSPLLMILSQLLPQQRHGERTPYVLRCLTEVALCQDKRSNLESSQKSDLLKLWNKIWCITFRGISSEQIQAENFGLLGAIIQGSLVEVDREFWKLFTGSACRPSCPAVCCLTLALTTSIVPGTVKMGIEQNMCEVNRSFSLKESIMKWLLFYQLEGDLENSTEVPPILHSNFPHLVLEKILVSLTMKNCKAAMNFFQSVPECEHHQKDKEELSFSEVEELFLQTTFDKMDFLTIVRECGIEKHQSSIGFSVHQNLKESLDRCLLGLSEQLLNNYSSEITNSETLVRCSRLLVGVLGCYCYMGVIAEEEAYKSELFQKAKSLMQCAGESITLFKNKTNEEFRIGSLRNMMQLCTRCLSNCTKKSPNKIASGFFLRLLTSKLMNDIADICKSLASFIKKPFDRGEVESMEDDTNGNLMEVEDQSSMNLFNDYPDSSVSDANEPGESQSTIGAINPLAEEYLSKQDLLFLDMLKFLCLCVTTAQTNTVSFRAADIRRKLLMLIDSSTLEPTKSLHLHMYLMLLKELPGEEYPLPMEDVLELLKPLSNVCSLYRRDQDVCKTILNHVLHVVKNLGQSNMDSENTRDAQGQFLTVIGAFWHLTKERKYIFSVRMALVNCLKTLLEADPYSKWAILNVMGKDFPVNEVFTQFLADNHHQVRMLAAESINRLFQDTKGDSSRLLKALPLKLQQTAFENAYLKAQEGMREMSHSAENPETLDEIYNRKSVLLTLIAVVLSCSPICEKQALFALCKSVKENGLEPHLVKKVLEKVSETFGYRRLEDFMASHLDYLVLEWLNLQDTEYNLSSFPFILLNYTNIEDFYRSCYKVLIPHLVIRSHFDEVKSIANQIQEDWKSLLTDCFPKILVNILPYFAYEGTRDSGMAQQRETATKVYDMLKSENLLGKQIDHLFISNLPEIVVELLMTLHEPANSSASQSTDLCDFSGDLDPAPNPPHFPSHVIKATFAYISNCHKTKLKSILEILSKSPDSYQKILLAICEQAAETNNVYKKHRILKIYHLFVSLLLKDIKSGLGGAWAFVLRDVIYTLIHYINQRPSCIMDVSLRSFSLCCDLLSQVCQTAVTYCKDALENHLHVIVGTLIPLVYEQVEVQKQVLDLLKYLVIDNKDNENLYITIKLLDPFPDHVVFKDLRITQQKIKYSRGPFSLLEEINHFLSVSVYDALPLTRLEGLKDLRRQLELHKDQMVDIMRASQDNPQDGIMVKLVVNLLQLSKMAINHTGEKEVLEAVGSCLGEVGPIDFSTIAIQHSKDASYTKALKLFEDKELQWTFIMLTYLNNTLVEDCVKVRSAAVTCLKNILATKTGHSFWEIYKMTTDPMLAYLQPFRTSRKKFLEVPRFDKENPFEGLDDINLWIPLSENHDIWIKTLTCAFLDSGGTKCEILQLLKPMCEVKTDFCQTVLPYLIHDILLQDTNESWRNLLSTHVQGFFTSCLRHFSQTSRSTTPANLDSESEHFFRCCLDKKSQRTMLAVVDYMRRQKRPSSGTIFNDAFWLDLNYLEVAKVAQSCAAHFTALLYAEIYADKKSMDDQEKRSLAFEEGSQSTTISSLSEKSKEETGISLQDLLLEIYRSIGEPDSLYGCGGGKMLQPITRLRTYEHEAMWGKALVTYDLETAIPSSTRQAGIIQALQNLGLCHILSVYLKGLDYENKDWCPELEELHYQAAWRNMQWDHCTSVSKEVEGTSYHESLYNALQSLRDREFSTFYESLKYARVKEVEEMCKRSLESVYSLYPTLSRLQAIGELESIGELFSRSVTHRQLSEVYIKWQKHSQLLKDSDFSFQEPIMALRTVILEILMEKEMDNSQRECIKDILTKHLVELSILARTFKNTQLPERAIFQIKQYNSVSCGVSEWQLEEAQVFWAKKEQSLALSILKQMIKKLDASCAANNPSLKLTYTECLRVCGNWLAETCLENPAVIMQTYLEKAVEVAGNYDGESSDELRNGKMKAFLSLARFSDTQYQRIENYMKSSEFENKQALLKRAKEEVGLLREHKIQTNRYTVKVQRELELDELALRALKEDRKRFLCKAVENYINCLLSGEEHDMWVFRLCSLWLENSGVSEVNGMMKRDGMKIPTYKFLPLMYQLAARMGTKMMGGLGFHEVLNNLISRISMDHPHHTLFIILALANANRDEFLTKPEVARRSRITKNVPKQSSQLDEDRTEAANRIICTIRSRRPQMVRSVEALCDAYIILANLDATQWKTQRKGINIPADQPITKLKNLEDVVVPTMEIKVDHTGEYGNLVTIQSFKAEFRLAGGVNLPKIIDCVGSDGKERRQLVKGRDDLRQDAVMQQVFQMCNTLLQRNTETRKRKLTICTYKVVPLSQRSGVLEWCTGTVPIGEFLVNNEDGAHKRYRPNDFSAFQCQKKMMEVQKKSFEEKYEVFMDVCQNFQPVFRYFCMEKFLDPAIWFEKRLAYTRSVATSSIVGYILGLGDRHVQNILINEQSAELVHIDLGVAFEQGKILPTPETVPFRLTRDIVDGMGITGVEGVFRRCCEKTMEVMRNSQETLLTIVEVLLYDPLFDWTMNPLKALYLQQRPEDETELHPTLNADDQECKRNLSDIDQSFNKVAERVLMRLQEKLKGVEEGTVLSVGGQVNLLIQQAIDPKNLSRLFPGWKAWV

[5] = biological target: T1, Serine/threonine-protein kinase mTOR; test: Inhibition of mTOR kinase in human HeLa cells at 10 uM by ELISA; format: cell-based; design: scale not given: the % may be the effect or the level left

Sequence of Phosphatidylinositol 4,5-bisphosphate 3-kinase catalytic subunit alpha isoform (P42336 whole entry, canonical isoform): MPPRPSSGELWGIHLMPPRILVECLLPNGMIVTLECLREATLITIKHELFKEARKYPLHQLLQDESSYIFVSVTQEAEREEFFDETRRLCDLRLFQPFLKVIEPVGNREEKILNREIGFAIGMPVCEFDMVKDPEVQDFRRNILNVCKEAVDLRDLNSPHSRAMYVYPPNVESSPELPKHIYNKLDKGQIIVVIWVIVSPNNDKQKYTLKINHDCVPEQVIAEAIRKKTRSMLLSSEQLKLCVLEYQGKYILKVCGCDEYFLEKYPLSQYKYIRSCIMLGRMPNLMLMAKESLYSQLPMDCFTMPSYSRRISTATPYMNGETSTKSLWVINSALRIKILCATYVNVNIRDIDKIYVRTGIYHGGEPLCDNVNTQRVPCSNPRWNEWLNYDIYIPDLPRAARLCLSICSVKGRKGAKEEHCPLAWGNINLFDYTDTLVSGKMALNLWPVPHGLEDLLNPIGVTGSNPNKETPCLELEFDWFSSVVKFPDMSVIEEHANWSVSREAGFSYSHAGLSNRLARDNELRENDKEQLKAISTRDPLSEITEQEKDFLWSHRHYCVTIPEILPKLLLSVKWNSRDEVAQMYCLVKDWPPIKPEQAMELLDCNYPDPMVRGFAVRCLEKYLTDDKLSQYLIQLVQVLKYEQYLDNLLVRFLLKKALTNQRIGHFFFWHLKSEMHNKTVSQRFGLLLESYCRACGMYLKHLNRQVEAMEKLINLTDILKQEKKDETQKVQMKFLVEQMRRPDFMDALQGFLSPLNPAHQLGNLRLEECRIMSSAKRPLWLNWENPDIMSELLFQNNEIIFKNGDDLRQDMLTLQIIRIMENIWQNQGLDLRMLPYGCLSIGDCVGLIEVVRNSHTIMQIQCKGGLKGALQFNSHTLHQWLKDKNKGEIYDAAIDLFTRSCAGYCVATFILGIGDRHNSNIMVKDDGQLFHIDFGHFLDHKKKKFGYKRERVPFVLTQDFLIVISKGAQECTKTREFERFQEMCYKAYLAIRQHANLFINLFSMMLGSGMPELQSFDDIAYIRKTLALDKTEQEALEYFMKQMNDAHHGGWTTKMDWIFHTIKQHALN

Row | pIC50 [2] | pIC50 [3] | SMILES | GI50 [1] | also measured
1 | < 5.00 | – | COc1cc(-c2cn(-c3nc(N4CCOCC4)nc(N4CCOCC4)n3)cn2)cc(OC)c1O | 24 µM | –
2 | < 5.00 | 6.74 | COc1cc(-c2csc(-c3ccnc(N4CCOCC4)n3)n2)cc(OC)c1O | 21 µM | –
3 | < 5.00 | 7.64 | COc1cc(-c2ccc(-c3cc(N4CCOCC4)nc(N4CCOCC4)n3)o2)cc(OC)c1O | 16 µM | –
4 | – | – | OCc1cccc(-c2ccc(-c3cc(N4CCOCC4)nc(N4CCOCC4)n3)o2)c1 | – | Papp A→B at 10 µM (MDR1 (human)): 33 ×10⁻⁶ cm/s
5 | < 5.00 | 6.57 | COc1cc(/C=N/Nc2nc(N3CCOCC3)nc(N3CCOCC3)n2)cc(OC)c1O | – | pIC50 [4]: < 5.00
6 | < 5.00 | 7.28 | COc1cc(-c2ccc(-c3ccnc(N4CCOCC4)n3)o2)cc(OC)c1O | 3.7 µM | –
7 | – | – | COc1cc(-c2cnn(-c3ccnc(N4CCOCC4)n3)c2)cc(OC)c1O | – | Activity [5]: < 50%
8 | – | – | Oc1cccc(-c2ccc(-c3cc(N4CCOCC4)nc(N4CCOCC4)n3)o2)c1 | – | Papp A→B at 10 µM (MDR1 (human)): 2.2 ×10⁻⁶ cm/s
9 | – | – | COc1cc(-c2ccc(-c3ccnc(N4CCOCC4)n3)s2)cc(OC)c1O | – | Activity [5]: < 50%
10 | – | < 5.00 | c1cc2cc(-c3ccc(-c4cc(N5CCOCC5)nc(N5CCOCC5)n4)o3)ccc2[nH]1 | – | –

Reference: ChEMBL document CHEMBL1156040, “Identification and optimisation of novel and selective small molecular weight kinase inhibitors of mTOR” (Bioorg Med Chem Lett, 2009)
